Activity calls are given as the source filed them. No cut-off for these calls is given here.
How the values were obtained:
RAW264.7 [1] = assay: Anti-inflammatory activity in mouse RAW264.7 cells assessed as inhibition of LPS-stimulated NO production by Griess assay; format: functional, cell-based
[2] = biological target: Transcription factor p65 (Mus musculus) (UniProt Q04207); assay: Inhibition of LPS-stimulated NF-kB p65 signaling pathway in mouse RAW264.7 cells assessed as reduction in p65 nuclear translocation at 3.3 to 30 uM preincubated for 2 hrs followed by LPS stimulation measured after 30 mins by Western blot method; format: cell-based
RAW264.7 [3] = assay: Inhibition of NF-kB signaling in mouse RAW264.7 cells assessed as reduction in LPS-stimulated iNOS protein level at 3.3 to 30 uM preincubated for 2 hrs followed by LPS stimulation measured after 4 hrs by Western blot assay; format: cell-based
[4] = biological target: Transcription factor p65 (Mus musculus) (UniProt Q04207); assay: Inhibition of LPS-stimulated NF-kB p65 signaling pathway in mouse RAW264.7 cells assessed as IkBalpha accumulation at 3.3 to 30 uM preincubated for 2 hrs followed by LPS stimulation measured after 30 mins by Western blot method; format: cell-based
RAW264.7 [5] = assay: Inhibition of NF-kB signaling in mouse RAW264.7 cells assessed as reduction in LPS-stimulated iNOS mRNA level preincubated for 2 hrs followed by LPS stimulation measured after 24 hrs by qRT-PCR method; format: cell-based
RAW264.7 [6] = assay: Inhibition of NF-kB signaling in mouse RAW264.7 cells assessed as reduction in LPS-stimulated IL-1beta mRNA level preincubated for 2 hrs followed by LPS stimulation measured after 4 hrs by qRT-PCR assay; format: cell-based
RAW264.7 [7] = assay: Inhibition of NF-kB signaling in mouse RAW264.7 cells assessed as reduction in LPS-stimulated IL-6 mRNA level preincubated for 2 hrs followed by LPS stimulation measured after 4 hrs by qRT-PCR assay; format: cell-based
[8] = biological target: Transcription factor p65 (Mus musculus) (UniProt Q04207); assay: Inhibition of NF-kB p65 phosphorylation in mouse RAW264.7 cells at 3.3 to 30 uM preincubated for 2 hrs followed by LPS stimulation measured after 30 mins by Western blot method; format: cell-based
RAW264.7 [9] = assay: Inhibition of NF-kB signaling in mouse RAW264.7 cells assessed as reduction in LPS-stimulated TNFalpha mRNA level preincubated for 2 hrs followed by LPS stimulation measured after 4 hrs by qRT-PCR assay; format: cell-based
RAW264.7 [10] = assay: Cytotoxicity against LPS-stimulated mouse RAW264.7 cells assessed as reduction in cell viability at 3.3 to 90 uM after 24 hrs by MTT assay; format: cell-based; conditions: raw264.7, 24 h
[11] = biological target: Transcription factor p65 (Mus musculus) (UniProt Q04207); assay: Inhibition of NF-kB p65 signaling pathway in mouse RAW264.7 cells assessed as reduction in LPS-stimulated IkBalpha phosphorylation at 3.3 to 30 uM preincubated for 2 hrs followed by LPS stimulation measured after 30 mins by Western blot method; format: cell-based
RAW264.7 [12] = assay: Anti-inflammatory activity in mouse RAW264.7 cells assessed as inhibition of LPS-stimulated NO production preincubated for 2 hrs followed by LPS stimulation measured after 18 hrs by Griess assay; format: functional, cell-based

Transcription factor p65 (Mus musculus), sequence (Q04207 whole entry): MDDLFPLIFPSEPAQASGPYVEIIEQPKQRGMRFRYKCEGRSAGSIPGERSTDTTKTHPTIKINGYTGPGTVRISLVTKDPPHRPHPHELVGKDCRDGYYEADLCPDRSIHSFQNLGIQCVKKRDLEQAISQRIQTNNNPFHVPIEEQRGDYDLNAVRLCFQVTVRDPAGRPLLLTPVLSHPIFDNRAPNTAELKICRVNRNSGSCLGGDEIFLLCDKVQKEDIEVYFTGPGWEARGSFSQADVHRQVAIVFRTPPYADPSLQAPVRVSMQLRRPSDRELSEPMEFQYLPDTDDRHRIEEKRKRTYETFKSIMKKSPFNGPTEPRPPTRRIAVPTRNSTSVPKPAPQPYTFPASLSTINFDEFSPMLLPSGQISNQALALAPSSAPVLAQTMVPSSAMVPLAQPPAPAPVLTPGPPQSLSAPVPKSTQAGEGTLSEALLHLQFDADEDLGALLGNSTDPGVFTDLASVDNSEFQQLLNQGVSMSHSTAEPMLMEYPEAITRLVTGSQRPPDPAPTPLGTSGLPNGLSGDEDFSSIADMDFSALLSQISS

| SMILES | IC50 (RAW264.7 [1]) | inhibition [2] | inhibition (RAW264.7 [3]) | inhibition [4] | inhibition (RAW264.7 [5]) | inhibition (RAW264.7 [6]) | inhibition (RAW264.7 [7]) | inhibition [8] | inhibition (RAW264.7 [9]) | Activity (RAW264.7 [10]) | inhibition [11] | inhibition (RAW264.7 [12]) |
| --- | --- | --- | --- | --- | --- | --- | --- | --- | --- | --- | --- | --- |
| CCCc1c(C(C)=O)c(O)cc2c1C(=O)C[C@H](O)C2 | 51.2 µM |  |  |  |  |  |  |  |  |  |  |  |
| CC(=O)CC1(O)CC(=O)c2c(C)cc(O)cc2O1 (configuration not stated) |  | Active | Active | Active | Dose-dependent effect | Dose-dependent effect | Dose-dependent effect | Active | Dose-dependent effect | Non-Toxic | Active | Dose-dependent effect |

Reference: ChEMBL document CHEMBL4184272, “Violacin A, a new chromanone produced by Streptomyces violaceoruber and its anti-inflammatory activity” (Bioorg Med Chem Lett, 2018)
